Data from patent publication US20150044305A1, “[…] NITRIC OXIDE FOR TREATING RESPIRATORY DISEASES” (Advanced Inhalation Therapies (AIT) Ltd., priority 2012, published 2015).

Tests used:
[1] = Phase I safety study: hematology, clinical chemistry and coagulation; assay type: in vivo, human; details: end of study; baseline 0.15; p=0.104
Method: After obtaining informed consent, treatment was initiated within 5 days of enrollment. Subjects were housed in a hospital ward and received 160 ppm gNO for 30 minutes every four hours (Q4 h), five times a day, for five consecutive days by inhalation. Subjects returned for follow-up evaluations 3, 7 and 21 days after the final gNO administration. Subject safety was determined by monitoring vital signs, methemoglobin levels, lung function, blood chemistry, hematology, prothrombin time, inflammatory cytokine/chemokines levels and endothelial activation.
Hematological assessment included a complete blood count and differentials (hemoglobin, hematocrit, red blood cell count, white blood cell count, white blood cell differential, and platelet count) were obtained in order to monitor blood chemistry, hematology and inflammation measurements. […] The effect of gNO on coagulation was determined by the prothrombin time (PT) and its derived measures of prothrombin ratio (PR) and international normalized ratio (INR). […] Plasma cytokine levels were assessed using the human inflammation cytokine bead array kit (BD Bioscience, Canada). Plasma levels of angiopoietin Ang-1 and Ang-2 were determined by ELISA (R&D Systems, USA).

S. maltophilia = details: 200 ppm gNO, saline suspension; cited from earlier work
Enterobacter sp. = details: 200 ppm gNO, saline suspension; cited from earlier work
[2] = topical 200 ppm gNO, cited from earlier work

SMILES: [N]=O [gNO, nitric oxide]
- eosinophil cell numbers [1]: 0.19 giga/L
- LD100 (S. maltophilia): 4 h
- Latent Period (S. maltophilia): 2 h
- −2.5 Log10 (hours) (S. maltophilia): 2.8 hours
- LD100 (Enterobacter sp.): 6 h
- Latent Period (Enterobacter sp.): 4 h
- −2.5 Log10 (hours) (Enterobacter sp.): 5.3 hours
- wound size reduction ([2]; at one week): 42%
- biofilm presence ([2]; within the first three days of treatment): no longer visibly present
